Experimental data: BindingDB's records for doi:10.1074/jbc.M113.480210 (University of Copenhagen, 2013)

Assays:
Assay in all cases: Two-electrode Voltage Clamp Electrophysiology
Conditions in all cases: pH 7.4; 25 °C
[1] = target: Glutamate receptor ionotropic, NMDA 1 [F484A,T518L]/3A (Rattus norvegicus, UniProt P35439+Q9R1M7, F484A/T518L)
Method: (§1) Two-electrode voltage clamp (TEVC) recordings were performed on Xenopus oocytes at room temperature 3-6 days postinjection using an OC-725C TEVC amplifier (Warner Instruments, Hamden, CT). […] Voltage and current electrodes were filled with 0.3 and 3 M KCl, respectively. During recordings, oocytes were placed in a recording chamber and perfused with the extracellular recording solution comprised of 90 mM NaCl, 1 mM KCl, 10 mM HEPES, 0.5 mM BaCl2, and 0.01 mM EDTA (pH 7.4 with NaOH). Current responses were recorded at a holding potential of -40 and -60 mV for GluN1/N2 and GluN1/N3 receptors, respectively. Compounds were dissolved in extracellular recording solution and applied to the oocyte by gravity-driven perfusion using a computer-controlled 8-modular valve positioner (Digital MVP, Hamilton, Reno, NV).

[2] = target: Glutamate receptor ionotropic, NMDA 1 [F484A,T518L]/3B (Rattus norvegicus, UniProt P35439+Q8VHN2, F484A/T518L)
Sequence of Glutamate receptor ionotropic, NMDA 1 [F484A,T518L]/3B (Q8VHN2 25-1002 limits assumed, other chains not shown): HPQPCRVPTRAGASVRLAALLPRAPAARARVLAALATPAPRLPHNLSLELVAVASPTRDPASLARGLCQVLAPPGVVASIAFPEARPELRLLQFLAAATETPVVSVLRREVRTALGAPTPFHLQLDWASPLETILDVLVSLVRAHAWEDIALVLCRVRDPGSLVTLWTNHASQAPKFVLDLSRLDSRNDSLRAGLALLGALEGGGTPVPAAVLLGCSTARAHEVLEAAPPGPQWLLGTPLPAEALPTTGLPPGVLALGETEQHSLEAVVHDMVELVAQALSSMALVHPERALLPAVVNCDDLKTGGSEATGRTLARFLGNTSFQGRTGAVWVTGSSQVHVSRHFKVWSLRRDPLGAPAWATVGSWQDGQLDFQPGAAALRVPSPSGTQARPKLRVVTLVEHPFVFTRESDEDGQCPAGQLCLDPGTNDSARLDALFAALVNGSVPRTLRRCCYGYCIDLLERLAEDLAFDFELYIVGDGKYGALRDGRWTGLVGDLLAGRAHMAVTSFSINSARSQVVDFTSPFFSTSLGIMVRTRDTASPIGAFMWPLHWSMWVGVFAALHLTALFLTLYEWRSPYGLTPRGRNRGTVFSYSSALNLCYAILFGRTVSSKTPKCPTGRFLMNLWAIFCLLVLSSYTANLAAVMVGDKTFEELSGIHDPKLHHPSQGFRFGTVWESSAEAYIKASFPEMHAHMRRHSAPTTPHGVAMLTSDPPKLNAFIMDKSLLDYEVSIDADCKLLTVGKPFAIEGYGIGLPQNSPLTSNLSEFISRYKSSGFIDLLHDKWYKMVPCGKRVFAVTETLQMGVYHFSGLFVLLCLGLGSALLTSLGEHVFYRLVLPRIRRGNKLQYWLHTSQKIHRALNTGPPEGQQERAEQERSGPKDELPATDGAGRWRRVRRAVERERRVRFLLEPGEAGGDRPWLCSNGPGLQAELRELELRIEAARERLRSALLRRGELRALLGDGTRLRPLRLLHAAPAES
Method: as §1

[3] = target: Glutamate receptor ionotropic, NMDA 2A (Rat, UniProt Q00959+Q62683)
Sequence of Glutamate receptor ionotropic, NMDA 2A (Q00959 whole entry, other chains not shown): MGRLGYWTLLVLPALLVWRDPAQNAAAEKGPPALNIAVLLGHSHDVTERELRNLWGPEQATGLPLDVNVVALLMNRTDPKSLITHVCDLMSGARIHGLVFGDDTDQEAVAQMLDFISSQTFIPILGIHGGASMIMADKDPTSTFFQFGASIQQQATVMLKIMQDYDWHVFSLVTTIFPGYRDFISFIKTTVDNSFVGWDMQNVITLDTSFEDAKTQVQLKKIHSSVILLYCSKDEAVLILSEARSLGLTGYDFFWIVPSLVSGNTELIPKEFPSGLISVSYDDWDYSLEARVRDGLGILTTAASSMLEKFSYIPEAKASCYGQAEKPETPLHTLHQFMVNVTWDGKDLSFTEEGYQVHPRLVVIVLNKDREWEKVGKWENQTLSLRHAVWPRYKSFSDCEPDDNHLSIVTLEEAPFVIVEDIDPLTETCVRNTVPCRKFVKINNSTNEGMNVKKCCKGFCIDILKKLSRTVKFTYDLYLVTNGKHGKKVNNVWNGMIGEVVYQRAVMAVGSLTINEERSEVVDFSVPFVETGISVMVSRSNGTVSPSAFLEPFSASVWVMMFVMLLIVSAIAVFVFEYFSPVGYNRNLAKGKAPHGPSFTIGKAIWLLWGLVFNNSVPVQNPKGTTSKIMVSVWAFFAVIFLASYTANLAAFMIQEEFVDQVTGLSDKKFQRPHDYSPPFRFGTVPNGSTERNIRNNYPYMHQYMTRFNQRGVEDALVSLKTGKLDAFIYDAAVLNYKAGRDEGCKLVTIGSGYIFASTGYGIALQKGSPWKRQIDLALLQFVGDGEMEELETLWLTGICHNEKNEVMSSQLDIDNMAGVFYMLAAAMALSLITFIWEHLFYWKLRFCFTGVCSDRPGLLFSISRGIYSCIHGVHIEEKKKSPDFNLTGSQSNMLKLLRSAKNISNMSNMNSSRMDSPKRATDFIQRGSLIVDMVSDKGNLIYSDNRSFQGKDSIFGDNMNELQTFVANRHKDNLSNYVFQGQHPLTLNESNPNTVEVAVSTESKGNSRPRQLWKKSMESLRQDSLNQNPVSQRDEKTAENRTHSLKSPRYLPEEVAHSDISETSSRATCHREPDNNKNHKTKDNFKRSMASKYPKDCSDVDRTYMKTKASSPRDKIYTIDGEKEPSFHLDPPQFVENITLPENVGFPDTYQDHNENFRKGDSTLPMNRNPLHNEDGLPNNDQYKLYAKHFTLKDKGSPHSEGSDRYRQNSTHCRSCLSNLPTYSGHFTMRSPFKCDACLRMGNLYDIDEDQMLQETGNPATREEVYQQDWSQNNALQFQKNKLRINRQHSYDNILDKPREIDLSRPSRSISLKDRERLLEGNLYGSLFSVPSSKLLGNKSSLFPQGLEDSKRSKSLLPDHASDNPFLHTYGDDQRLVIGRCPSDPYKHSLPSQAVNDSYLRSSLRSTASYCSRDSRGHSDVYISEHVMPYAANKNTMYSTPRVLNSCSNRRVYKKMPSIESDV
Method: as §1

Glutamate receptor 1 = Glutamate receptor 1 (Rattus norvegicus, UniProt P19490)
Sequence of Glutamate receptor 1 (P19490 whole entry): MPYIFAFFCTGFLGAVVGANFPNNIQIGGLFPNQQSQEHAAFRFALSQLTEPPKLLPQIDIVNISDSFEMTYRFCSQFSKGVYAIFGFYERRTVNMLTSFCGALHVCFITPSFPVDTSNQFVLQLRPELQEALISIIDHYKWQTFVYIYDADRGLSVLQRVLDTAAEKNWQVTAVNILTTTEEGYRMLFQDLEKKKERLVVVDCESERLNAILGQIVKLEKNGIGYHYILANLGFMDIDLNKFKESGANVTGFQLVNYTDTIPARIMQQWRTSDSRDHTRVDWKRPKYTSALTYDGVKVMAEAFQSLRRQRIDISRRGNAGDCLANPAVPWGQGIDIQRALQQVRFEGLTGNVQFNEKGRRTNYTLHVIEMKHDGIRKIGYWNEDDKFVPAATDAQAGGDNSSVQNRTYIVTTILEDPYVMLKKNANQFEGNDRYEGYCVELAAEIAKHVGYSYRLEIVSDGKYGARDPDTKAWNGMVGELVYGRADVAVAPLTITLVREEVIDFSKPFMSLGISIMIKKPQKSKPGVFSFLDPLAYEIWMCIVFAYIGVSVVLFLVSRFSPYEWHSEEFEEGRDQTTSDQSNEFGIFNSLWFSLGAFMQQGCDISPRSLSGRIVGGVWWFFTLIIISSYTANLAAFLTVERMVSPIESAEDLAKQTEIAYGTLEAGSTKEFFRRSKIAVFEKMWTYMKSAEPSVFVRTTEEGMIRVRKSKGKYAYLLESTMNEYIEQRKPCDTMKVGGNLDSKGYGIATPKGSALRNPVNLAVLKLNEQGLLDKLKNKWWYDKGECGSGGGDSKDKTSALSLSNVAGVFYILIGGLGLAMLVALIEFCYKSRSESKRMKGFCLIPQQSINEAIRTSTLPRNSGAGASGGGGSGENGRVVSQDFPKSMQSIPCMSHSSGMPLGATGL
Method: as §1

[4] = target: Glutamate receptor ionotropic, NMDA 2B (Rat, UniProt Q00960+Q62683)
Method: as §1

[5] = target: Glutamate receptor ionotropic, NMDA 2C (Rat, UniProt Q00961+Q62683)
Method: as §1

[6] = target: Glutamate receptor ionotropic, NMDA 2D (Rat, UniProt Q62645+Q62683)
Method: as §1

Sequence of Glutamate receptor ionotropic, NMDA 1 [F484A,T518L]/3A (Q9R1M7 24-1135 limits assumed, other chains not shown): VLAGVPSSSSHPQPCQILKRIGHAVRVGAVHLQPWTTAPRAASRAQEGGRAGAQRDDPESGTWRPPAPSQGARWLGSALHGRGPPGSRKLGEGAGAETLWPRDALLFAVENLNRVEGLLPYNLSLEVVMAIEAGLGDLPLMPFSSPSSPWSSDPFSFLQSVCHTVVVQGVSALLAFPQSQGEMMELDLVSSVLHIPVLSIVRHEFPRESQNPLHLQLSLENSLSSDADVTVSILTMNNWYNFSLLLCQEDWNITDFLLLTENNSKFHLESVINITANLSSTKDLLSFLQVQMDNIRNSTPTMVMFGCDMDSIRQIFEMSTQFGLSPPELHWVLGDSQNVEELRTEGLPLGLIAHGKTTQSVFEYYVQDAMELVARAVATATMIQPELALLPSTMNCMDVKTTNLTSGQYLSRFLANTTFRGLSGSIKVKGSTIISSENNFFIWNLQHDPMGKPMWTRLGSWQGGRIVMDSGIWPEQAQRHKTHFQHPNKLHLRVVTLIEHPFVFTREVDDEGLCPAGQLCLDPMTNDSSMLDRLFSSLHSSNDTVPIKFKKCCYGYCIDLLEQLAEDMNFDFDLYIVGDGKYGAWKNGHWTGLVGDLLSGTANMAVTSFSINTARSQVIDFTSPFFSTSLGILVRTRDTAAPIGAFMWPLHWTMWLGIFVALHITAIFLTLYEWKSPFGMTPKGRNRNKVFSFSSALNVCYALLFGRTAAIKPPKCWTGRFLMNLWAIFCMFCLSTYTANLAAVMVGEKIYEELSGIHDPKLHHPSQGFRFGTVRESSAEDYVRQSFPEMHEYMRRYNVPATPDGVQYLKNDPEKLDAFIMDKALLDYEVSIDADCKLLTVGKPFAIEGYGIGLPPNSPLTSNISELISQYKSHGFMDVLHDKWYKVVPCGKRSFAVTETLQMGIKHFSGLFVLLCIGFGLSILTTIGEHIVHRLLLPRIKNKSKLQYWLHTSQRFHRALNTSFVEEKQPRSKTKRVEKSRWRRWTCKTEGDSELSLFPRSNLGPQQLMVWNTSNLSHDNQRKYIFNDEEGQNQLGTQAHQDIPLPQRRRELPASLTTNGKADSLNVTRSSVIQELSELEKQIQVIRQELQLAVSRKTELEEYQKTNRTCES

Row | IC50 [1] [µM] | Ki [1] [µM] | IC50 [2] [µM] | Ki [2] [µM] | IC50 [3] [nM] | Ki [3] [nM] | IC50 (Glutamate receptor 1) [µM] | Ki (Glutamate receptor 1) [µM] | Ki [4] [nM] | Ki [5] [nM] | Ki [6] [nM] | Compound
1 | 97 | 35 | > 300 | > 150 | 92 | 65 |  |  |  |  |  | O=C(O)c1cc(O)c2c(Cl)cc(Cl)cc2n1 [5,7-Dichlorokynurenic acid (5,7-DCKA)]
2 |  |  |  |  | 770 | 560 | > 300 | > 180 | > 1300 | > 800 | > 300 | O=c1[nH]c2ccccc2n2c(S)nnc12 [1-thioxo-1,2-dihydro-[1,2,4]triazolo[4,3-a]-quinoxalin-4(5H)-one]
